Assay [1] concerns the target T1, BRD4 (Homo sapiens (Human), UniProt O60885). The experiment in a line: BRD4 DSF thermal shift (ΔTm). The assay is classed as binding. Conditions: for BRD4 DSF (ΔTm): Table 2.
Assay [2] concerns UKE1 cells. The experiment in a line: Growth inhibition GI50, UKE1 cells. Type of assay: cell-based.
The subject of another assay is MM1.S cells. The assay can be described thus: Antiproliferative activity, MM1.S cells. To be noted: Homo sapiens; for GI50: Table 2, read-out: GI50 (MM1S). The assay is classed as cell-based. Here is the method:
Cellular activity of promising compounds is assessed using MM.1S and MV4-11 AML cells using c-Myc levels as biomarker (6-12 hr treatment) and antiproliferative activity (48-72 hr treatment) as described (Ciceri et al., Dual kinase-bromodomain inhibitors for rationally designed polypharmacology. Nat Chem Biol 2014).

In assay [3] the test system is UKE1 cells. The experiment in a line: Drug persistence of UKE1 cells under escalating drug concentration. Conditions: for development of drug persistence: UKE1 cells started at GI20, concentration doubled if growth >90% of DMSO; for final drug concentration at the end of the experiment: drug persistence experiment. Type of assay: cell-based. How it is done:
UKE1 cells were incubated with DMSO, MA9-060, fedratinib, or ruxolitinib at their respective GI20 concentrations. Cell growth was compared to DMSO. Cells were passed back to the same density after counting. Drug concentration was doubled if growth was >90% of DMSO. Fold GI20 is plotted vs time, with drug persistence represented by upward steps of the lines. The final MA9-060, ruxolitinib, and fedratinib concentrations at the end of the experiment were 0.15, 0.6 and 2.4 uM, respectively. Fedratinib-treated cells lost complete viability after about 30 days (after 3 weeks in 2.4 uM).

The target in the next assay is JAK2 (Homo sapiens (Human), UniProt O60674). The assay can be described thus: JAK2 IC50. Type of assay: biochemical. To be noted: Table 2.
Assay [4] addresses T1, BRD4. The assay can be described thus: BRD4 IC50. Type of assay: binding. Conditions: Table 2.
Where [5] appears, read: UKE1, Table 2, read-out: GI50 (UKE1).

Read-outs that look alike come from different tables or passages of the source. Some results are limits rather than exact numbers.

Chain of JAK2 (O60674 whole entry): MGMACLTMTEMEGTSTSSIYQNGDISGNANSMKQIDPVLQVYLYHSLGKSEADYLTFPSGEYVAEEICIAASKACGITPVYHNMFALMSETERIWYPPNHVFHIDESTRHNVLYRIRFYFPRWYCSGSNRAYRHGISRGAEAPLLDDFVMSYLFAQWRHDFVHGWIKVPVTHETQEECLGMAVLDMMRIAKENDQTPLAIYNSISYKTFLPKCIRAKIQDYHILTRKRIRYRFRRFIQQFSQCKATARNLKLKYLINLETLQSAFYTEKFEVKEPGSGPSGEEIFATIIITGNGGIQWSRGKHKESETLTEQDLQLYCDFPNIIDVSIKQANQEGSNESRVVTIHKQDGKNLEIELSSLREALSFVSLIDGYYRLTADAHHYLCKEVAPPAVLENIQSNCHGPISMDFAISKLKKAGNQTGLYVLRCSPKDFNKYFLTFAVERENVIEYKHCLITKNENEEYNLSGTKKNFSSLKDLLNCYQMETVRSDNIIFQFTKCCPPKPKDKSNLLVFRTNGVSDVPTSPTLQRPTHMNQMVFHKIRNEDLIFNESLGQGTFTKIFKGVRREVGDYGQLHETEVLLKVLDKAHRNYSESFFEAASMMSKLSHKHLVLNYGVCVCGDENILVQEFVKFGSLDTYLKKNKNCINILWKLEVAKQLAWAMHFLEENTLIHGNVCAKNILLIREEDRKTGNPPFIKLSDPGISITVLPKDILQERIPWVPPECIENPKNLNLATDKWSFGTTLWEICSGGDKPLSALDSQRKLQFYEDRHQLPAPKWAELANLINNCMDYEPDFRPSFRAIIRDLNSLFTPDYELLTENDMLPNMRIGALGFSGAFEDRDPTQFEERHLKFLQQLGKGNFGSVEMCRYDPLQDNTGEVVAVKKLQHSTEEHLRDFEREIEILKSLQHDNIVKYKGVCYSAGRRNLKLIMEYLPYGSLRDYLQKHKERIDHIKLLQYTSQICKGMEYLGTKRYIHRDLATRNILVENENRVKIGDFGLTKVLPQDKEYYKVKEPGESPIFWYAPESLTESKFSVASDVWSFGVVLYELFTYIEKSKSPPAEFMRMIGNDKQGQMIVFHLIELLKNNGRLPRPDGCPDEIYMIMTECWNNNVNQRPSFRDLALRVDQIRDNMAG

In general, GI50 refers to the concentration that inhibits growth by half. In the case of `Cc1cnc(Nc2cc(F)c(C3CCN(C)CC3)cn2)nc1Nc1ccc(Cl)c(NS(=O)(=O)C(C)(C)C)c1` [PN1-064, N-(2-Chloro-5-((2-((4-fluoro-5-(1-methylpiperidin-4-yl)pyridin-2-yl)amino)-5-methylpyrimidin-4-yl)amino)phenyl)-2-methylpropane-2-sulfonamide], the “BRD4 DSF (ΔTm)” value on BRD4 [1] was found to be 13.6 °C. Further, the GI50 turned out to be 0.054 µM in the assay on UKE1 cells [2] (setting [5]) and 0.043 µM with MM1.S cells.
Regarding `Cc1cnc(Nc2ccc(OCCN3CCCC3)cc2)nc1Nc1cccc(S(=O)(=O)NC(C)(C)C)c1` [fedratinib], the “development of drug persistence” value with UKE1 cells [3] is “persistently grew in increasing concentrations”. Moreover, the “time until treated cells lost complete viability” value with UKE1 cells [3] (UKE1 cells, after 3 weeks in 2.4 uM) was “about 30 days”. The “final drug concentration at the end of the experiment” value in the assay on UKE1 cells [3] (UKE1 cells) stood at 2.4 µM.
Regarding `Cc1cnc(Nc2cc(F)c(C3CCN(C)CC3)c(F)c2)nc1Nc1ccc2c(c1)N(S(=O)(=O)C(C)(C)C)CC2` [PN2-129, N^4-(1-(tert-butylsulfonyl)indolin-6-yl)-N^2-(3,5-difluoro-4-(1-methylpiperidin-4-yl)phenyl)-5-methylpyrimidine-2,4-diamine], the “BRD4 DSF (ΔTm)” value at BRD4 [1] amounted to 13.8 °C. In addition, the GI50 in the assay with UKE1 cells [2] (setting [5]) was found to be 0.222 µM; in the assay with MM1.S cells, 0.152 µM.
As to `N#CC[C@H](C1CCCC1)n1cc(-c2ncnc3[nH]ccc23)cn1` [ruxolitinib], the “development of drug persistence” value with UKE1 cells [3] was “persistently grew in increasing concentrations”. Also, the “final drug concentration at the end of the experiment” value with UKE1 cells [3] (UKE1 cells) was 0.6 µM.
Usually IC50 stands for the concentration that inhibits the measured activity by half. The low end stands for inhibition by little substance, the high end for a need for much substance. For `Cc1cnc(Nc2cc(F)cc(N3CCN(C)CC3)c2)nc1Nc1ccc(Cl)c(NS(=O)(=O)C(C)(C)C)c1` [MA9-062, N-(2-Chloro-5-((2-((3-fluoro-5-(4-methylpiperazin-1-yl)phenyl)amino)-5-methylpyrimidin-4-yl)amino)phenyl)-2-methylpropane-2-sulfonamide], the IC50 on JAK2 came to 0.017 µM; on BRD4 [4] it was 0.049 µM. Moreover, at BRD4 [1], the “BRD4 DSF (ΔTm)” value worked out at 11.3 °C. Also, the GI50 in the assay with MM1.S cells amounted to 0.16 µM.
As to `Cc1cnc(Nc2cc(F)c(C3CCN(C)CC3)cn2)nc1Nc1ccc(F)c(NS(=O)(=O)C(C)(C)C)c1` [PN2-089, N-(2-Fluoro-5-((2-((4-fluoro-5-(1-methylpiperidin-4-yl)pyridin-2-yl)amino)-5-methylpyrimidin-4-yl)amino)phenyl)-2-methylpropane-2-sulfonamide], the “BRD4 DSF (ΔTm)” value on BRD4 [1] stood at 13.4 °C. The GI50 with UKE1 cells [2] (setting [5]) was found to be 0.134 µM; in the assay with MM1.S cells it was 0.072 µM.
At JAK2, `Cc1cnc(Nc2ccc(C3CCN(C)CC3)cc2)nc1Nc1cccc(NS(=O)(=O)C(C)(C)C)c1` [SY3-034, 2-Methyl-N-(3-((5-methyl-2-((4-(1-methylpiperidin-4-yl)phenyl)amino)pyrimidin-4-yl)amino)phenyl)propane-2-sulfonamide] showed an IC50 of 0.0016 µM. The “BRD4 DSF (ΔTm)” value at BRD4 [1] was 10.6 °C. In addition, the results for the GI50 in the assay on UKE1 cells [2] (setting [5]) and in the assay on MM1.S cells were 0.22 µM and 0.091 µM, respectively.
For `Cc1cnc(Nc2ccc(OCCN3CCCC3)c(F)c2)nc1Nc1ccc2c(c1)N(S(=O)(=O)C(C)(C)C)CC2` [MA11-007, N4-(1-(tert-butylsulfonyl)indolin-6-yl)-N2-(3-fluoro-4-(2-(pyrrolidin-1-yl)ethoxy)phenyl)-5-methylpyrimidine-2,4-diamine], the “BRD4 DSF (ΔTm)” value on BRD4 [1] was determined as 13.7 °C. Besides, the values for the GI50 in the assay on UKE1 cells [2] (setting [5]) and in the assay with MM1.S cells were 0.26 µM and 0.135 µM, respectively.
For `Cc1cnc(Nc2ccc(N3CCN(C)CC3)c(F)c2)cc1Nc1cccc(S(=O)(=O)NC(C)(C)C)c1` [MA9-024, N-(Tert-butyl)-3-((2-((3-fluoro-4-(4-methylpiperazin-1-yl)phenyl)amino)-5-methylpyridin-4-yl)amino)benzenesulfonamide], in that order: 4.1 °C, above 24 µM and 4.79 µM.
For `Cc1cnc(Nc2cc(F)c(C3CCN(C)CC3)cn2)nc1Nc1ccc2c(c1)N(S(=O)(=O)C(C)(C)C)CC2` [PN2-128, N^4-(1-(tert-Butylsulfonyl)indolin-6-yl)-N^2-(4-fluoro-5-(1-methylpiperidin-4-yl)pyridin-2-yl)-5-methylpyrimidine-2,4-diamine], in that order: 12.8 °C, 0.207 µM and 0.186 µM.
As for `Cc1ccc(Nc2nc(Nc3cc(F)c(C4CCN(C)CC4)cn3)ncc2C)cc1NS(=O)(=O)C(C)(C)C` [PN2-175, N-(5-((2-((4-Fluoro-5-(1-methylpiperidin-4-yl)pyridin-2-yl)amino)-5-methylpyrimidin-4-yl)amino)-2-methylphenyl)-2-methylpropane-2-sulfonamide], the “BRD4 DSF (ΔTm)” value at BRD4 [1] was found to be 12.6 °C. In the assay with UKE1 cells [2] (setting [5]), the GI50 was 0.22 µM.
Consider `Cc1cnc(Nc2cc(F)cc(N3CCN(C)CC3)c2)nc1Nc1cccc(NS(=O)(=O)C(C)(C)C)c1` [SY3-040, N-(3-((2-((3-Fluoro-5-(4-methylpiperazin-1-yl)phenyl)amino)-5-methylpyrimidin-4-yl)amino)phenyl)-2-methylpropane-2-sulfonamide], for which the IC50 against JAK2 was 0.0031 µM; at BRD4 [4] it was 0.127 µM. Also, on BRD4 [1], the “BRD4 DSF (ΔTm)” value came to 11.1 °C. Besides, in the assay with MM1.S cells, the GI50 worked out at 0.22 µM.
On to `Cc1cnc(Nc2ccc(OCCN3CCCC3)cc2)nc1Nc1ccc2c(c1)N(S(=O)(=O)C(C)(C)C)CC2` [MA11-006, N4-(1-(tert-butylsulfonyl)indolin-6-yl)-5-methyl-N2-(4-(2-(pyrrolidin-1-yl)ethoxy)phenyl)pyrimidine-2,4-diamine], for which the “BRD4 DSF (ΔTm)” value on BRD4 [1] was found to be 11.0 °C. The values for the GI50 in the assay with UKE1 cells [2] (setting [5]) and with MM1.S cells were 0.502 µM and 0.499 µM, respectively.
As to `Cc1cnc(Nc2cc(F)c(C3CCN(C)CC3)c(F)c2)nc1Nc1cccc(NS(=O)(=O)C(C)(C)C)n1` [MA11-035, N-(6-((2-((3,5-difluoro-4-(1-methylpiperidin-4-yl)phenyl)amino)-5-methylpyrimidin-4-yl)amino)pyridin-2-yl)-2-methylpropane-2-sulfonamide], the “BRD4 DSF (ΔTm)” value on BRD4 [1] was 5.1 °C. The GI50 in the assay on UKE1 cells [2] (setting [5]) came to 0.761 µM.
`Cc1cnc(Nc2ccc(N3CCN(C)CC3)c(F)c2)cc1Nc1cccc(NS(=O)(=O)C(C)(C)C)c1` [SY3-005, N-(3-((2-((3-Fluoro-4-(4-methylpiperazin-1-yl)phenyl)amino)-5-methylpyridin-4-yl)amino)phenyl)-2-methylpropane-2-sulfonamide]: the results for the IC50 against JAK2 and at BRD4 [4] were above 1 µM and 3.96 µM, respectively. On BRD4 [1], the “BRD4 DSF (ΔTm)” value is 6.0 °C. In addition, the GI50 with UKE1 cells [2] (setting [5]) was determined as 5.3 µM; in the assay with MM1.S cells, 3.31 µM.
With `Cc1cnc(Nc2cc(F)c(C3CCN(C)CC3)c(F)c2)nc1Nc1ccc2ccn(S(=O)(=O)C(C)(C)C)c2n1` [MA11-012, N4-(1-(tert-butylsulfonyl)-1H-pyrrolo[2,3-b]pyridin-6-yl)-N2-(3,5-difluoro-4-(1-methylpiperidin-4-yl)phenyl)-5-methylpyrimidine-2,4-diamine], at BRD4 [1], the “BRD4 DSF (ΔTm)” value was 3.9 °C. Moreover, in the assay on UKE1 cells [2] (setting [5]), the GI50 stood at 0.58 µM.
Consider `Cc1cnc(Nc2ccc(C3CCN(C)CC3)c(F)c2)nc1Nc1cccc(NS(=O)(=O)C(C)(C)C)c1` [SY3-038, N-(3-((2-((3-Fluoro-4-(1-methylpiperidin-4-yl)phenyl)amino)-5-methylpyrimidin-4-yl)amino)phenyl)-2-methylpropane-2-sulfonamide], for which the IC50 at JAK2 is 0.0007 µM; on BRD4 [4], 0.087 µM. The “BRD4 DSF (ΔTm)” value on BRD4 [1] came to 12.3 °C. In the assay with UKE1 cells [2] (setting [5]), the GI50 came out at 0.064 µM.
For the compound `Cc1cnc(Nc2ccc(C3CCN(C)CC3)cc2)nc1Nc1cccc(NS(=O)(=O)C(C)(C)C)c1` [drawing 12], at BRD4 [1] (Table 1), the “DSF ΔTm” value came to 10.6 °C. Further, in the assay on UKE1 cells [2] (UKE1, Table 1 comments, read-out: GI50 (UKE1 cells)), the GI50 worked out at 0.22 µM. In the assay with MM1.S cells (Table 1 comments), this compound gave a half-inhibitory concentration (IC50) of 0.091 µM.
Turning to `Cc1cnc(Nc2cc(F)c(C3CCN(C)CC3)c(F)c2)nc1Nc1cnc(Cl)c(NS(=O)(=O)C(C)(C)C)c1` [MA11-017, N-(2-chloro-5-((2-((3,5-difluoro-4-(1-methylpiperidin-4-yl)phenyl)amino)-5-methylpyrimidin-4-yl)amino)pyridin-3-yl)-2-methylpropane-2-sulfonamide], the “BRD4 DSF (ΔTm)” value at BRD4 [1] amounted to 14.3 °C. In addition, the 50% growth inhibitory concentration (GI50) in the assay on UKE1 cells [2] (setting [5]) was found to be 0.102 µM.
For `Cc1ccc(Nc2nc(Nc3ccc(C4CCN(C)CC4)c(F)c3)ncc2C)cc1NS(=O)(=O)C(C)(C)C` [PN2-173, N-(5-((2-((3-Fluoro-4-(1-methylpiperidin-4-yl)phenyl)amino)-5-methylpyrimidin-4-yl)amino)-2-methylphenyl)-2-methylpropane-2-sulfonamide], in that order: 12.3 °C and 0.463 µM.
With `Cc1cnc(Nc2ccc(C3CCN(C)CC3)c(F)c2)nc1Nc1ccc2c(c1)N(S(=O)(=O)C(C)(C)C)CC2` [MA9-086, N4-(1-(Tert-butylsulfonyl)indolin-6-yl)-N2-(3-fluoro-4-(1-methylpiperidin-4-yl)phenyl)-5-methylpyrimidine-2,4-diamine], the 50% inhibitory concentration (IC50) is 0.0011 µM against JAK2 and 0.0064 µM at BRD4 [4]. In addition, the “BRD4 DSF (ΔTm)” value on BRD4 [1] was 13.4 °C. Further, in the assay on MM1.S cells, the GI50 was 0.194 µM.
